Assays:
[1] = test system: SARS-CoV-2; assay type: cell-based; details: assumed that the wet tissue has a density
[2] = Oral pharmacokinetic analysis in rats; assay type: in vivo; details: niclosamide dose 10 mg/kg by oral gavage, n = 5
Description: The oral pharmacokinetic analysis was conducted at Pharmaron (Ningbo, China). The study protocol was approved and conducted in accordance with the Institutional Animal Care and Use Committee (IACUC) guidelines at Pharmaron. (IACUC; Protocol Number AUP-PK-R-06012019). […] The powders were blended by mortar and pestle and loaded into the capsules using the capsule filling funnel for size 9 (Torpac, Fairfield, NJ, USA). […] Two mobile phases were used. The mobile phase A was a 0.1% formic acid aqueous solution, and the mobile phase B was a mixture of 5% water and 95% acetonitrile (0.1% formic acid). Then, 50 μL of plasma with 5 μL of methanol were added to 200 μL of methanol containing an internal standard mixture for protein precipitation. The samples were vortexed for 30 s and underwent centrifugation for 15 min at 4000 rpm and […]. Thereafter, the supernatant was diluted three times with water, and 2 μL were injected into the HPLC. Furthermore, the resultant particles were subjected to dissolution and the resultant supernatants after centrifugation were analyzed.

[3] = Pharmacokinetic evaluation of milled niclosamide extrudate in CD-1 mice; assay type: in vivo; details: 500 mg/kg suspended in 0.5% Methocel A4M
[4] = test system: SARS-CoV; details: Vero cells infected by SARS-CoV (2002 pandemic); cited from earlier work
[5] = test system: COVID-19; details: Vero E6 cells; cited from earlier work

O=C(Nc1ccc([N+](=O)[O-])cc1Cl)c1cc(Cl)ccc1O [niclosamide, 5-Chloro-N-(2-chloro-4-nitrophenyl)salicylamide]
Estimated niclosamide IC50 for SARS-CoV-2 [1]: 0.09156 μg/g of wet tissue

O=C(Nc1ccc([N+](=O)[O-])cc1Cl)c1cc(Cl)ccc1O
AUCInf [2]: 188 ng·h/mL
AUClast [2]: 168 ng·h/mL
AUC—% Extrap_obs [2]: 8.4%
Cmax [2]: 48.3 ng/mL
MRTInf_obs [2]: 3.56 h
T1/2 [2]: 1.00 h
Tmax [2]: 3.60 h

O=C(Nc1ccc([N+](=O)[O-])cc1Cl)c1cc(Cl)ccc1O [Crystalline Nic]
AUC0-last [3]: 1454.6 ng·h/mL
Cmax [3]: 661.7 ng/mL
Tmax [3]: 0.5 h

CCN(CC)CCCC(C)Nc1ccnc2cc(Cl)ccc12 (stereo not shown) [chloroquine]
IC50 [4]: 4400 nM
IC50 [5]: 1130 nM

— patent US12076328B2 (priority 2020, dated 2024)
